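All cell lines were grown in 96-well plates and treated with compound for 48 hours. GI50 = concentration required for 50% inhibition of growth. TGI: concentration producing complete growth inhibition.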
Assays:
Test in all cases: inhibition of tumour cell growth, NCI panel, 48 h
[1] = system: DU-145 prostate
[2] = system: 786-0 renal
[3] = system: SF-539 CNS
[4] = system: OVCAR-4 ovarian
[5] = system: K-562 leukemia
[6] = system: OVCAR-5 ovarian
[7] = system: A549 NSCLC
[8] = system: NCI-H460 lung
[9] = system: SK-MEL-28 melanoma
[10] = system: PC-3 prostate
[11] = system: RPMI-8226 leukemia
[12] = system: SK-MEL-2 melanoma

Row | SMILES | TGI [1] [µM] | TGI [2] [µM] | TGI [3] [µM] | TGI [4] [µM] | TGI [5] [µM] | TGI [6] [µM] | TGI [7] [µM] | TGI [8] [µM] | TGI [9] [µM] | TGI [10] [µM] | TGI [11] [µM] | TGI [12] [µM] | GI50 [1] [µM] | GI50 [11] [µM] | GI50 [3] [µM] | GI50 [6] [µM] | GI50 [12] [µM] | GI50 [8] [µM] | GI50 [9] [µM]
1 | Cc1cccc2c1Oc1cc(Cl)ccc1C2NC(=O)CCN1CCN(CCO)CC1 (configuration not stated) | 61.2 | 26.5 | 26 | 31 | 40.6 | 40.9 | 23.7 | 34.2 | 9.93 | 28.1 |  |  |  |  |  |  |  |  | 
2 | CCc1n[nH]c(=O)n1/N=C/c1ccccc1Cl | > 100 | > 100 | > 100 | > 100 | > 100 | > 100 | > 100 | > 100 | > 100 |  | > 100 | > 100 |  |  |  |  |  |  | 
3 | COC(=O)C1=C(C(=O)OC)C2(OC(C)=O)c3ccccc3-c3ccccc3C12 (configuration not stated) |  | 8.26 | 31.6 | 6.48 |  | 27.2 | 31.9 | 32.8 | 11.9 |  | 6.56 | 29.2 |  |  |  |  |  |  | 
4 | CCCCC(=O)Nc1ccc2cc(C(=O)OC)c(ON3C(=O)c4ccccc4C3=O)nc2n1 |  | 36.1 | 43.5 | 81.2 | > 100 | 98.3 | > 100 | 51.4 | 53.5 | > 100 | > 100 | > 100 |  |  |  |  |  |  | 
5 | O=C(CC(=O)N1N=C(N2CCCCC2)CC1c1ccccc1)Nc1ccc(Cl)cc1 (configuration not stated) | > 100 | > 100 |  | > 100 |  | > 100 | > 100 | > 100 | > 100 | > 100 |  | > 100 |  |  |  |  |  |  | 
6 | O=C1CCC[C@]2(CCC[C@@H](O)C2)N1 | > 100 | > 100 | > 100 | > 100 | > 100 | > 100 | > 100 | > 100 |  | > 100 |  | > 100 |  |  |  |  |  |  | 
7 | COC1=CC(=O)[C@H]2[C@H](C)C(c3ccccc3)[C@@]2(C)C1=O (some centres not stated) |  | > 100 | > 100 | > 100 | > 100 | > 100 | > 100 | > 100 | > 100 |  | > 100 | > 100 |  |  |  |  |  |  | 
8 | CCNC1(c2cccc(C)c2)OC(C)(C)c2cccc3cccc1c23 (configuration not stated) | 36.1 | 37.6 | 34.9 | 29.9 | > 100 | 38.1 | 30.9 | 30 |  |  | 15.8 | 30.3 |  |  |  |  |  |  | 
9 | Nc1c(-c2nc3ccccc3s2)c2ccc([N+](=O)[O-])cc2c(=O)n1-c1cccc(C(=O)O)c1 | 64.7 | > 100 |  | > 100 |  |  | > 100 | > 100 | 59.8 | > 100 |  | 75.4 |  |  |  |  |  |  | 
10 | N#Cc1c(-c2ccco2)cc(-c2ccc(NCc3nc4ccccc4[nH]3)cc2)nc1N |  | 87.9 | 47.6 | 66.3 | 71.7 | > 100 | 93.8 | 43.3 | 67.5 |  | 62 | 40.3 |  |  |  |  |  |  | 
11 | Clc1ccc(Oc2ccc(N=Cc3ccc(Cl)cc3Cl)cc2Cl)cc1 | > 100 | 63.5 | 65.1 | > 100 |  | > 100 | > 100 | > 100 | > 100 | > 100 | > 100 | > 100 |  |  |  |  |  |  | 
12 | CN(C)c1ccc(/C=C(\C#N)C(N)=C(C#N)C#N)cc1 | > 100 | > 100 | > 100 | > 100 | > 100 | > 100 | > 100 | > 100 | > 100 | > 100 |  |  |  |  |  |  |  |  | 
13 | O=C/C(=C(/Br)I)c1ccccc1 | 29.2 | 5.38 | 6.11 | 10.6 | 3.85 | 23.6 | 56.2 | 26.4 | 2.6 | 18.2 |  | 13.5 |  |  |  |  |  |  | 
14 | O=C1C(/C=C/c2ccc(Cl)cc2)=NNC2N1N=C1NC(=O)C3(NN12)c1ccccc1-c1ccccc13 (configuration not stated) | > 100 | > 100 | > 100 | > 100 | > 100 | > 100 | > 100 | > 100 | > 100 | > 100 |  | > 100 |  |  |  |  |  |  | 
15 | O=C1NC(Cc2c[nH]c3ccccc23)C(=O)N2C(C3CCCCC3)c3[nH]c4ccccc4c3C[C@@H]12 (some centres not stated) | > 100 | 28.5 |  | > 100 | 44.8 | 43 | > 100 |  | 44.4 | 28.3 | 32.8 | 32.2 |  |  |  |  |  |  | 
16 | CC1(C)CC[C@]2(C)CC=C3[C@]4(C)CC[C@H]5C(C)(C)C(=O)CC[C@]5(C)[C@H]4CC[C@@]3(C)[C@H]2C1 | > 100 | > 100 | > 100 | > 100 |  | > 100 | > 100 |  | > 100 | > 100 | > 100 | > 100 |  |  |  |  |  |  | 
17 | NCCCNc1nc2ccccc2c2c(=O)c3cc(C(F)(F)F)ccc3sc12 | 3.26 |  | 3.16 |  |  | 3.15 |  | 3.17 | 3.23 |  | 4.71 | 3.82 | 1.82 | 2.06 | 1.71 | 1.73 | 1.93 | 1.66 | 1.81
18 | COc1cc(C2c3cc4c(cc3OC(Nc3ccc(C(=O)O)cc3)C2C)OCO4)cc(OC)c1OC (configuration not stated) |  | > 100 | 0.561 | > 52.9 |  | > 100 | > 47.5 | > 100 | > 100 | > 100 | 25 | > 59.9 |  |  |  |  |  |  | 
19 | COc1ccc2nc3ccc(OC)cc3c(S(=O)(=O)Cc3ccc([N+](=O)[O-])cc3)c2c1 | > 100 | > 100 | > 100 | > 100 | > 100 | > 100 | > 100 | > 100 | > 100 | > 100 |  | > 100 |  |  |  |  |  |  | 
20 | O=C(/C=C/c1ccc(Cl)cc1)Oc1ccc(/C=C2\CCCCC2=O)cc1 | > 100 | > 100 | > 100 | > 100 |  | > 100 | > 100 | > 100 | > 100 | > 100 | > 100 | > 100 |  |  |  |  |  |  | 

Source: PubChem BioAssay (NCI)
